From patent US7592419
Like-named read-outs stand apart in the source and are kept apart here.

Details: rcm bond, CH2Cl2, 25.0 °C

**Q.** For `COC(=O)[C@@H]1CCCCC=CCCCC[C@H](NC(=O)OCc2ccccc2)C(=O)N2C[C@@H]3OC(C)(C)C[C@@H]3[C@H]2C(=O)N1`, which ring closure, yield of all isomers (from C=CCCCC[C@H](NC(=O)[C@@H]1[C@H]2CC(C)(C)O[C@H]2CN1C(=O)[C@H](CCCCC=C)NC(=O)OCc1ccccc1)C(=O)OC, Grubbs I [(Cy3P)2Cl2Ru=CHPh], 50.0 mM, 24.0 h) is on record?
**A.** 58.9%

**Q.** Which ring closure, yield of all isomers (from C=CCCCC[C@H](NC(=O)[C@@H]1[C@@H]2[C@H](CN1C(=O)[C@@H](NC(=O)OCc1ccccc1)C(C)(C)CCCC=C)C2(C)C)C(=O)OC, Grubbs catalyst (Grubbs I), 101.1 mM, 24.0 h) does the source give for `COC(=O)[C@@H]1CCCCC=CCCCC(C)(C)[C@H](NC(=O)OCc2ccccc2)C(=O)N2C[C@H]3[C@@H]([C@H]2C(=O)N1)C3(C)C` here?
**A.** 44.5%

**Q.** For `COC(=O)CNC(=O)C(O)[C@@H]1CCCC=CCC[C@H](NC(=O)OCC(C)C)C(=O)N2CCC[C@H]2C(=O)N1` (stereo partly shown), which ring closure, yield of all isomers (from C=CCCC[C@H](NC(=O)[C@@H]1CCCN1C(=O)[C@H](CCC=C)NC(=O)OCC(C)C)C(O)C(=O)NCC(=O)OC, Grubbs catalyst (Grubbs I), 3.0 mM, 65.0 h) is on record?
**A.** 20%

**Q.** With `COC(=O)[C@@H]1CCCCC=CCCCC[C@H](NC(=O)OC(C)(C)C)C(=O)N2C[C@H]3[C@@H]([C@H]2C(=O)N1)C3(C)C` as the compound, how does the ring closure, yield of all isomers (from C=CCCCC[C@H](NC(=O)[C@@H]1[C@@H]2[C@H](CN1C(=O)[C@H](CCCCC=C)NC(=O)OC(C)(C)C)C2(C)C)C(=O)OC, Grubbs I [(Cy3P)2Cl2Ru=CHPh], 100.0 mM, 24.0 h) read?
**A.** 48.2%
